COc1c(C)c2c(c(O)c1C/C=C(\C)CCC(=O)OCCN1CCOCC1)C(=O)OC2
solubility (mole fraction)
Conditions | 278.15 K | 283.15 K | 288.15 K | 293.15 K | 298.15 K | 303.15 K | 308.15 K | 313.15 K | 318.15 K
in DMSO | – | – | – | 0.0166 | 0.0214 | 0.0263 | 0.0322 | 0.0389 | 0.046
in ethanol | 0.00352 | 0.00394 | 0.00449 | 0.00511 | 0.00581 | 0.00659 | 0.00749 | 0.00847 | 0.0095
in isopropanol | 0.00538 | 0.00592 | 0.00664 | 0.00732 | 0.00821 | 0.0091 | 0.00998 | 0.011 | 0.0121
in propylene glycol | 0.000349 | 0.000486 | 0.000633 | 0.00081 | 0.001 | 0.00122 | 0.00145 | 0.00172 | 0.00199
in water | 2.62e-07 | 4.16e-07 | 6.62e-07 | 1.05e-06 | 1.55e-06 | 2.12e-06 | 2.84e-06 | 3.68e-06 | 4.51e-06

— BigSolDB 2.1
